Results published in US10953026B2, “N-acetyl mannosammine as a therapeutic agent” (THE UNITED STATES OF AMERICA, as represented by the …, priority 2007, dated 2021).
“And” between values parts separate entries of the source, which are not always exact repeats. Identical values can stand only once. “Also recorded” adds a separate entry of the source.

Key:
[1] = test system: cultured cells; conditions: incubation of cultured cells; cited from earlier work
[2] = Tolerability and growth of ManNAc-treated mice; type: in vivo
Method: (§1) Breeding pairs of 6-week-old GneM^712T/+ mice were divided into 3 groups. Group I consisted of 9 GneM^712T/+ breeding pairs, who were administered untreated sterilized tap water. Group II consisted of 1 breeding pair of Gne^+/+ mice (wild-type control) and 6 GneM^712T/+ breeding pairs, who were administered water containing 1 mg/ml (˜0.2 g/kg/day) ManNAc (Sigma-Aldrich). […] Group III consisted of 1 Gne^+/+ breeding pair and 7 GneM^712T/+ breeding pairs, who were administered water supplemented with 5 mg/ml (˜1.0 g/kg/day) ManNAc. Water was changed twice weekly. Nursing females continued to be supplied with ManNAc. All mice were weaned from ManNAc at 21 days. Selected whole litters were euthanized at age P2, P6, and P19 for histological, genetic, biochemical, or ultrastructural analysis.

[3] = test system: Gne^M712T/M712T mice; assay: Mouse histology (H&E) after ManNAc treatment; type: in vivo
Method: Mouse tissues were collected, formalin fixed (10%) and paraffin embedded. Tissue sections ([…]) were stained with H&E following standard procedures (American Histolabs) or subjected to immunohistochemistry with a variety of primary antibodies. Formalin-fixed tissues were deparaffinized in HistoClear II (National Diagnostics) and […] in a series of ethanol solutions. Antigen retrieval was performed for sections that were to be stained with antibodies against Gne/Mnk (by boiling 5 minutes in citric acid-based solution; Vector Laboratories) and against dystrophin (by boiling in 1 mM EDTA according the manufacturer's protocol; AbCam). The sections were blocked (2% BSA, 10% donkey serum, and 0.1% Triton X-100 in PBS) and incubated with primary antibodies (Gne/Mnk 1:50; laminin 1:25; dystrophin 1:50) overnight at 4° C., followed by incubation with the secondary antibody, Alexa Fluor 488-conjugated donkey anti-rabbit (1:500 in blocking solution) (Invitrogen). The sections were mounted in VECTASHIELD Mounting Medium (Vector Laboratories) and viewed and digitally imaged with a Zeiss Axiovert 200M microscope (Zeiss).
as §1

[4] = single dose of 0.142 g/kg/day; cited from earlier work
[5] = test system: Gne^M712T/M712T mice; assay: Rescue by ManNAc feeding: survival of homozygous mutant pups (ManNAc in drinking water of breeding pairs); type: in vivo, mouse
Description: Gne^M712T/M712T mice. Gne^M712T/M712T knockin mice were generated by targeting the M712T (ATG to ACG) mutation of exon 12 of the murine Gne gene (Gne, Uae1, GenBank NM_015828) (FIG. 2A). The nucleotide sequence for this Gne, Uae1 allele (GenBank NM_015828) without the mutation is shown below for easy reference (SEQ ID NO:3).
The mutant mice were maintained in the C57BL/6J background. Animals were housed in an accredited specific pathogen-free facility in accordance with accepted guidelines. Cages were ventilated in a temperature- and light-controlled environment (22° C., 30%-70% humidity, 12-hour light/12-hour dark cycle). The mice were fed irradiated chow (Prolab 5P75 Isopro 3000; PMI Nutrition International) and sterile water ad libitum. All euthanasia was performed by CO2 inhalation followed by cervical dislocation.
as §1
Differences between data groups were evaluated for significance using the 2-tailed Student's t test of unpaired data. For Mendelian distribution analysis, a goodness-of-fit (χ2) test was performed, while for comparisons of survival between treated and untreated mice of all genotypes (Gne^+/+, GneM^712T/+, and GneM^712T/M712T), a 2-tailed Fisher's exact test using a 2×3 table was employed. All data are presented as the mean±SD. A P value less than 0.05 was considered statistically significant.

[6] = test system: PSA-NCAM; assay: Immunoblots with PSA-NCAM antibodies (sialylation status); type: in vivo, mouse
Description: (§2) A rabbit polyclonal antibody was custom prepared against a Gne/Mnk peptide comprising amino acids 588-607 ([…], SEQ ID NO:8), coupled to keyhole limpet hemocyanine, and affinity purified against the corresponding antigenic peptide (Covance). The following additional primary antibodies were commercially obtained: dystrophin (catalog no. ab15277; Abcam); α-dystroglycan (clone IIH6C4; Upstate Biotechnology); laminin-1 (catalog no. L9393; Sigma-Aldrich); podocalyxin (catalog no. PODX11-A; Alpha Diagnostic International); podocin (catalog no. P0372; Sigma-Aldrich); laminin β1 (catalog no. MAB1928; Millipore); desmin (catalog no. 1466-1; Epitomics); α-SMA (SPM332; GeneTex Inc.); PSA-NCAM (catalog no. MAB5324; Millipore); and β-actin (catalog no. AAN01; Cytoskeleton).
Mouse tissues (age P2) were extracted, homogenized in CelLytic buffer consisting of a mild detergent, bicine buffer, and 150 mM NaCl (Sigma-Aldrich) supplemented with protease inhibitors (Complete Mini; Roche Applied Science). The lysates were sonicated and cleared by centrifugation (1000 g for 10 minutes), and the resulting supernatants were assayed for protein (BCA Protein Assay; Pierce Biotechnology). […]
The degree of sialylation of two heavily sialylated marker proteins, PSA-NCAM and podocalyxin was evaluated. […]

[7] = test system: Gne/Mnk protein; assay: Immunoblots of muscle and kidney extracts with anti-Gne/Mnk antibodies; type: in vivo, mouse
Description: as §2
Mouse tissues (age P2) were extracted, homogenized in CelLytic buffer consisting of a mild detergent, bicine buffer, and 150 mM NaCl (Sigma-Aldrich) supplemented with protease inhibitors (Complete Mini; Roche Applied Science). The lysates were sonicated and cleared by centrifugation (1000 g for 10 minutes), and the resulting supernatants were assayed for protein (BCA Protein Assay; Pierce Biotechnology). For the neuraminidase enzymatic treatments (FIG. 6E), protein homogenates ([…]) were incubated for 30 min at 37° C. with 1 mU/mg of neuraminidase (catalog no. N6514; Sigma-Aldrich). Equal amounts of protein ([…]) were electrophoresed on 4%-12% Tris-Glycine gels (Novex; Invitrogen), and electroblotted onto […] Hybond ECL nitrocellulose membranes (GE Healthcare). The membranes were blocked (10% fat-free milk) and incubated with primary antibodies followed by HRP-conjugated secondary antibodies (GE Healthcare). Results were visualized with ECL (ECL Western Blotting Detection Reagents; GE Healthcare) and exposure to CL-XPosure Film (Pierce Biotechnology). Densitometry was performed on the digital images obtained with a Kodak Image Station and software (PerkinElmer). The protein levels were normalized to those of β-actin to correct for differences in protein loading and/or transfer. […]

[8] = test system: Gne^M712T/M712T mice; assay: Electron microscopy of kidney glomeruli after ManNAc treatment; type: in vivo, mouse; conditions: age P19, versus untreated Gne^M712T/M712T
Method: Kidney samples were fixed overnight at 4° C. in 2% glutaraldehyde in 0.1 M cacodylate buffer (pH 7.4) and washed with cacodylate buffer. After postfixation with 1% OsO4 for 2 hours and a second wash with 0.1 M cacodylate buffer, the tissues were serially dehydrated in ethanol and embedded in Eponate 12 resin (Ted Pella). Thin sections (˜80 nm) were obtained using a Leica Ultracut UCT Ultramicrotome (Leica Microsystems), placed onto 400 mesh copper grids, and stained with saturated uranyl acetate in 50% methanol followed by lead citrate. The grids were viewed with a Philips 410 electron microscope (FEI Company) at 80 kV, and images were recorded on Kodak SO-163 film (Kodak).
as §1

[9] = test system: Gne-deficient mouse embryonic stem cells; conditions: growth medium supplemented with ManNAc; cited from earlier work
[10] = test system: Gne/Mnk epimerase; assay: Gne-epimerase enzymatic assay in skeletal muscle of ManNAc-treated mice; type: in vivo, mouse
Method: as §1
Mouse kidney and skeletal muscle (quadriceps) tissues were homogenized and subjected to the Gne-epimerase enzymatic assay as previously described (11, 58). This assay was based on incubation with radiolabeled substrate (Uridine diphosphate N-acetyl glucosamine [1-^3H]; American Radiolabeled Chemicals Inc.) and detection of radiolabeled product ([^3H]ManNAc) upon separation of oligosaccharides by high-pH anion-exchange chromatography with pulsed amperometric detection (Dionex).

[11] = test system: laminin-1; assay: Immunoblots of kidney extracts with laminin-1 antibodies; type: in vivo, mouse; conditions: Gne^+/+ and Gne^M712T/M712T littermates
Description: as §2
Mouse tissues (age P2) were extracted, homogenized in CelLytic buffer consisting of a mild detergent, bicine buffer, and 150 mM NaCl (Sigma-Aldrich) supplemented with protease inhibitors (Complete Mini; Roche Applied Science). The lysates were sonicated and cleared by centrifugation (1000 g for 10 minutes), and the resulting supernatants were assayed for protein (BCA Protein Assay; Pierce Biotechnology). For the neuraminidase enzymatic treatments (FIG. 6E), protein homogenates (25 mg) were incubated for 30 min at 37° C. with 1 mU/mg of neuraminidase (catalog no. N6514; Sigma-Aldrich). […]

[12] = test system: podocalyxin; assay: Immunoblots of kidney extracts with podocalyxin antibodies (sialylation status); type: in vivo, mouse; conditions: after ManNAc treatment, P2
Description: as §2
The lysates were sonicated and cleared by centrifugation (1000 g for 10 minutes), and the resulting supernatants were assayed for protein (BCA Protein Assay; Pierce Biotechnology). For the neuraminidase enzymatic treatments (FIG. 6E), protein homogenates (25 mg) were incubated for 30 min at 37° C. with 1 mU/mg of neuraminidase (catalog no. N6514; Sigma-Aldrich). Equal amounts of protein ([…]) were electrophoresed on 4%-12% Tris-Glycine gels (Novex; Invitrogen), and electroblotted onto […] Hybond ECL nitrocellulose membranes (GE Healthcare). […]

[13] = ~1.0 g/kg/d in drinking water, mice
[14] = 3.5 months of age, ManNAc until P21

CC(=O)CCC(=O)N[C@@H]1C(O)O[C@H](CO)[C@@H](O)[C@@H]1O (stereo partly shown) [ManLev, N-levulinoylmannosamine]
incorporation of sialic acid analogs (SiaLev or SiaNAz) into cell surface glycoconjugates [1]: incorporation of the downstream sialic acid analogs

CC(=O)N[C@H]1[C@@H](O)[C@H](O)[C@@H](CO)O[C@H]1O [ManNAc, N-acetyl-D-mannosamine]
size of surviving Gne^M712T/M712T mice versus littermates ([2]; ManNAc ~1 g/kg/d): remained smaller than their littermates | weight of surviving Gne^M712T/M712T mice relative to wild-type littermates ([2]; ManNAc ~1.0 g/kg/day): 70%-100% | side effects [2, 13]: no side effects were attributed to the treatment | tolerability [2, 13]: well tolerated | kidney histology of Gne^M712T/M712T survivor (urinary space and tubules) [3, 14]: mild red blood cell infiltrations | skeletal muscle histology of Gne^M712T/M712T survivor [3, 14]: no structural or inflammatory abnormalities | cystic tubular dilatations in cortex and medulla ([3]; age P6): fewer cystic tubular dilatations | kidney histology compared with untreated Gne^M712T/M712T mice at P2 ([3]; age P6): significant histological improvement | abnormalities in liver, heart or skeletal muscle tissues ([3]; age P6, treated Gne^M712T/M712T mice): no abnormalities | red blood cell infiltrates in tubules and Bowman space ([3]; age P6, versus untreated at P2): reduced red blood cell infiltrates; also recorded: less severe | safety in humans [4]: evidence of the safety | pups died at age P1-P3 (number) ([5]; 1 mg/ml (~0.2 g/kg/d), 7 litters): 13 | surviving homozygous Gne^M712T/M712T mice beyond age P3 ([5]; 1 mg/ml (~0.2 g/kg/day) in drinking water, 51 offspring): no surviving homozygous | homozygous mutant pups died at age P1-P3 (number) ([5]; 5 mg/ml (~1 g/kg/d), 13 litters): 14 | Gne^M712T/M712T mice that died between P6 and P12, of the twelve that survived past P3 ([5]; 5 mg/ml (~1.0 g/kg/day)): nine | Gne^M712T/M712T pups surviving beyond P3 (number) ([5]; 5 mg/ml (~1.0 g/kg/day) in drinking water, 102 newborns, P=0.01 vs 1 untreated survivor): 12 | Gne^M712T/M712T mice that survived past P21 ([5]; 5 mg/ml (~1.0 g/kg/day), ManNAc ceased at P21): Two | myopathic features of the surviving Gne^M712T/M712T mouse ([5]; 6 months old, ManNAc until P21): no obvious myopathic features | survival beyond P3, share of Gne^M712T/M712T pups ([5]; ManNAc administration): 43% | PSA-NCAM expression in muscle and kidney upon treatment ([6]; P2): no change | increase of PSA-NCAM signal intensity in Gne^M712T/M712T brain versus untreated ([6]; brain extracts, P=0.08): 2%-28% and 2% to 28% | Gne/Mnk protein in Gne^M712T/M712T kidney compared with Gne^+/+ littermates ([7]; after ManNAc (32.1% untreated), relative to β-actin, P=0.006): 62.2% | Gne/Mnk protein in Gne^M712T/M712T muscle compared with Gne^+/+ littermates ([7]; after ManNAc (38.5% untreated), relative to β-actin, P=0.12): 68.8% | Gne/Mnk protein expression in Gne^M712T/M712T tissues versus untreated ([7]; muscle and kidney, ManNAc feeding): increased | filtration slits / open slit diaphragms [8]: greater number of open slit diaphragms; also recorded: improved | overall integrity of the GBM [8]: significantly improved | podocyte foot processes (fusion, flattening, formation) [8]: less fusion and flattening; also recorded: improved | sialylation of hyposialylated cells [9]: became resialylated | Gne activity in Gne^M712T/M712T muscle, of untreated Gne^+/+ mean ([10]; homozygous mutant skeletal muscle, after ManNAc (19.4% untreated), n=7, P=0.05): 31% (±8.4) | Gne activity in Gne^+/+ muscle, of untreated Gne^+/+ mean ([10]; wild-type skeletal muscle, after ManNAc, n=3, P=0.2): 114% (±19.7) | laminin-1 intensity / pattern in kidney without or with ManNAc treatment [11]: No difference | sialylation of podocalyxin in Gne^M712T/M712T kidney [12]: markedly improved; also recorded: changed significantly

[N-]=[N+]=NCC(=O)N[C@@H]1C(O)O[C@H](CO)[C@@H](O)[C@@H]1O (stereo partly shown) [ManNAz, N-azidoacetyl-mannosamine]
incorporation of sialic acid analogs (SiaLev or SiaNAz) into cell surface glycoconjugates [1]: incorporation of the downstream sialic acid analogs
